In patent US12539292B2, “BRM targeting compounds and associated methods of use” (Arvinas Operations, Inc., priority 2018, dated 2026):
Read-outs that look alike come from different tables or passages of the source.

Target: T1, BRM (Homo sapiens, UniProt P51531)
T1 construct: In-Cell Western Screen of BRM Degradation in SW1573 Cells; endogenous in cells; host or cells: SW1573
Assay: In-cell Western screen of BRM degradation in SW1573 cells (Dmax and DC50)
Type: cell-based
Method in brief: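 Near-infrared imaging on a LI-COR Odyssey (800 and 680 nm channels) quantifies BRM remaining in fixed SW1573 cells. Cells are dosed for 18-20 h at 0.1% final DMSO, and degradation is expressed as Dmax and DC50.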

[1] = SW1573, % degraded, when tested at the top concentration of between 0.3 and 10 μM, read-out: BRM Dmax (%)
[2] = degradation of BRM, read-out: BRM DC50

T1 sequence (P51531 whole entry): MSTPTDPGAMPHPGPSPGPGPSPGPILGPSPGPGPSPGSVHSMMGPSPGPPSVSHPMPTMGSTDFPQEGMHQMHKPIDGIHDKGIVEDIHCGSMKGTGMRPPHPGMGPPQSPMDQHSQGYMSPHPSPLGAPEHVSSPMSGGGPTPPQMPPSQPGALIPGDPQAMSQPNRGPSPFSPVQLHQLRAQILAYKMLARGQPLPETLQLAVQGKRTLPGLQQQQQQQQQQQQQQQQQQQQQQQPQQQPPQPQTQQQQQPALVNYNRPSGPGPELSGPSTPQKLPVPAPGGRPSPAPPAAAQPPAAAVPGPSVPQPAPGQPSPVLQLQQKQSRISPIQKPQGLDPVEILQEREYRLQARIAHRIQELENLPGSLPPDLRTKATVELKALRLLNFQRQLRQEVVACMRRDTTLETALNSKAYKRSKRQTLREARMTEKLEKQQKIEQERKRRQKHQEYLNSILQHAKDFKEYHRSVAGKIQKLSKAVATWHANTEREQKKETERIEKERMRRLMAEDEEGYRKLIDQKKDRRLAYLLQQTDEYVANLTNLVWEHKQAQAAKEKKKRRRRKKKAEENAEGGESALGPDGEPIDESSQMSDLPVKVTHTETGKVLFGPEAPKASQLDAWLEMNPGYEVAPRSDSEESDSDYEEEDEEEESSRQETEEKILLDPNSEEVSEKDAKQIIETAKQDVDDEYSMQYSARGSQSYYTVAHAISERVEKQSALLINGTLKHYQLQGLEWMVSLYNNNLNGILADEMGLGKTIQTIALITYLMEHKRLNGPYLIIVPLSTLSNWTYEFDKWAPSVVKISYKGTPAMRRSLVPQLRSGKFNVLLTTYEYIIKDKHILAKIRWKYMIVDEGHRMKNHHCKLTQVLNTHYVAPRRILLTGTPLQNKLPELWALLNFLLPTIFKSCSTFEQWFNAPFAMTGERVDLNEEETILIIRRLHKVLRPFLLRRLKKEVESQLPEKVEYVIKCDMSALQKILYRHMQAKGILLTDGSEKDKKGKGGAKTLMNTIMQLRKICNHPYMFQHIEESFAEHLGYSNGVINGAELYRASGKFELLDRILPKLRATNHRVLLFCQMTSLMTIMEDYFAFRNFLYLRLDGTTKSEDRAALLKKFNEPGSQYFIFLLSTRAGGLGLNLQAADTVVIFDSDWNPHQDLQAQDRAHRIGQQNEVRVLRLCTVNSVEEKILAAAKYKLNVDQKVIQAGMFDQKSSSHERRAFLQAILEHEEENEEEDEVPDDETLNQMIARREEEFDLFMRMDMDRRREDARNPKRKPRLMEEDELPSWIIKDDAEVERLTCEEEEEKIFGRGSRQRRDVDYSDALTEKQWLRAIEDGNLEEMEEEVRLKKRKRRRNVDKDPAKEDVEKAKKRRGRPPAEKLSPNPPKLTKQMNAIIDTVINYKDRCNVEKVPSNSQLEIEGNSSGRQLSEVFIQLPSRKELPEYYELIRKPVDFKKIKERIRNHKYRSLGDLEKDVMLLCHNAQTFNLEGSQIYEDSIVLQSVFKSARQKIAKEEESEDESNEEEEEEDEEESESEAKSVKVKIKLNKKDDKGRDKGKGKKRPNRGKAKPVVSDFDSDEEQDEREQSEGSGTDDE

Question: Which Dmax (BRM degradation, SW1573 cells, Table 2D, read-out: **Dmax (%) (% degraded)) does the source give for CNC(=O)CCC[C@H](NC(=O)[C@@H]1C[C@@H](O)CN1C(=O)[C@@H](c1cc(OCCN2CCC(O[C@H]3C[C@H](Oc4cc(N5C6CCC5CN(c5cc(-c7ccccc7O)nnc5N)C6)ccn4)C3)CC2)no1)C(C)C)c1ccc(-c2scnc2C)cc1 [compound 570, (2S,4R)-1-((2R)-2-(3-(2-(4-((1r,3R)-3-((4-(3-(3-amino-6-(2-hydroxyphenyl)pyridazin-4-yl)-3,8-diazabicyclo[3.2.1]octan-8-yl)pyridin-2-yl)oxy)cyclobutoxy)piperidin-1-yl)ethoxy)isoxazol-5-yl)-3-methylbutanoyl)-4-hydroxy-N-((S)-5-(methylamino)-1-(4-(4-methylthiazol-5-yl)phenyl)-5-oxopentyl)pyrrolidine-2-carboxamide] here?
Answer: > 75%

Question: What about the DC50 (BRM degradation, SW1573 cells, Table 2D, read-out: *DC50) of the same molecule?
Answer: < 2.5 nM

Question: CC(C)[C@H](C(=O)N1C[C@H](O)C[C@H]1C(=O)N[C@@H](C)c1ccc(C#N)cc1)c1cc(OCC#Cc2ncc(O[C@H]3C[C@H](Oc4cc(N5C6CCC5CN(c5cc(-c7ccccc7O)nnc5N)C6)ccn4)C3)cn2)no1 [compound 386, (2S,4R)-1-((2S)-2-(3-((3-(5-((1r,3S)-3-((4-(3-(3-amino-6-(2-hydroxyphenyl)pyridazin-4-yl)-3,8-diazabicyclo[3.2.1]octan-8-yl)pyridin-2-yl)oxy)cyclobutoxy)pyrimidin-2-yl)prop-2-yn-1-yl)oxy)isoxazol-5-yl)-3-methylbutanoyl)-N-((S)-1-(4-cyanophenyl)ethyl)-4-hydroxypyrrolidine-2-carboxamide] was tested. Which Dmax [1] did it give?
Answer: > 75%

Question: What about the DC50 (target protein degradation, read-out: BRM DC50) of the same molecule?
Answer: 10 to 30 nM

Question: For Cc1ncsc1-c1ccc([C@H](C)NC(=O)[C@@H]2C[C@@H](O)CN2C(=O)[C@@H](c2cc(OCCN3CCC(O[C@H]4C[C@H](Oc5cc(/C=C/c6cc(-c7ccccc7O)nnc6N)ccn5)C4)CC3)no2)C(C)C)cc1 [compound 428, (2S,4R)-1-((R)-2-(3-(2-(4-((1r,3R)-3-((4-((E)-2-(3-amino-6-(2-hydroxyphenyl)pyridazin-4-yl)vinyl)pyridin-2-yl)oxy)cyclobutoxy)piperidin-1-yl)ethoxy)isoxazol-5-yl)-3-methylbutanoyl)-4-hydroxy-N-((S)-1-(4-(4-methylthiazol-5-yl)phenyl)ethyl)pyrrolidine-2-carboxamide], which Dmax [1] is on record?
Answer: > 75%

Question: And the DC50 [2]?
Answer: < 2.5 nM

Question: Cc1ncsc1-c1ccc([C@@H](C)NC(=O)[C@@H]2C[C@@H](O)CN2C(=O)[C@H](c2cc(OCCN3CCC(O[C@H]4C[C@H](Oc5cc(N6C7CCC6CN(c6cc(-c8ccccc8O)nnc6N)C7)ccn5)C4)CC3)no2)C(C)C)nn1 [compound 442, (2S,4R)-1-((2S)-2-(3-(2-(4-((1r,3S)-3-((4-(3-(3-amino-6-(2-hydroxyphenyl)pyridazin-4-yl)-3,8-diazabicyclo[3.2.1]octan-8-yl)pyridin-2-yl)oxy)cyclobutoxy)piperidin-1-yl)ethoxy)isoxazol-5-yl)-3-methylbutanoyl)-4-hydroxy-N-((R)-1-(6-(4-methylthiazol-5-yl)pyridazin-3-yl)ethyl)pyrrolidine-2-carboxamide] was tested. Which DC50 [2] did it give?
Answer: > 30 nM

Question: How did the DC50 (BRM degradation, SW1573 cells, read-out: DC50) turn out when Cc1ncsc1-c1ccc([C@H](C)NC(=O)[C@@H]2C[C@@H](O)CN2C(=O)[C@@H](c2cc(N3CCC(F)(CN4CCC(O[C@H]5C[C@H](Oc6cc(N7C8CCC7CN(c7cc(-c9ccccc9O)nnc7N)C8)ccn6)C5)CC4)CC3)no2)C(C)C)cc1 [compound 683, (2S,4R)-1-((2R)-2-(3-(4-((4-((1r,3r)-3-((4-(3-(3-amino-6-(2-hydroxyphenyl)pyridazin-4-yl)-3,8-diazabicyclo[3.2.1]octan-8-yl)pyridin-2-yl)oxy)cyclobutoxy)piperidin-1-yl)methyl)-4-fluoropiperidin-1-yl)isoxazol-5-yl)-3-methylbutanoyl)-4-hydroxy-N-((S)-1-(4-(4-methylthiazol-5-yl)phenyl)ethyl)pyrrolidine-2-carboxamide] was run?
Answer: < 2.5 nM

Question: And the Dmax (BRM degradation, SW1573 cells, read-out: Dmax (% degraded))?
Answer: > 75%
